Experimental data reported in patent publication US20210324281A1, “FUEL DERIVED FROM RENEWABLE RESOURCES” (priority 2018, published 2021).

Assays:
[1] = RapidOxy oxidative stability measurement (DIN EN 16091, 140° C., 700 kPa oxygen); type: physicochemical; conditions: for oxidative stability of the single, pure component: standard: induction time above 33.3 min, FIG. 8; for oxidative stability standard according to EN 14214: 500 ppm in Plantanol with 1 wt.-% solketal, FIG. 15
Experimental: In this method, the pressure of a closed, with oxygen filled and afterwards heated sample chamber is measured against time. […] Therefore, the samples are heated up to 140° C. with an oxygen pressure of 700 kPa. […] The incubation time is the period between the start of the experiment and until the pressure dropped by 10% compared to the maximum pressure in the sample chamber. In FIG. 8 etc., this limit is indicated by a dashed line.
For this purpose, the samples were heated up to 140° C. at 700 kPa in an oxygen atmosphere. Thereafter the device measured the pressure with respect to the time. The measurement automatically stopped once a decrease of the pressure of 10% occurred. The time needed for this decrease by 10% is called “induction time” and represents a characteristic quantity for the oxidative stability of a fuel. The quantity “ppm” (parts per million) in the present experimental examples refers to a molar ratio (n/n), if not stated otherwise.

Staphylococcus aureus = experiment: Modified broth dilution in biphasic biofuel (Plantanol)/water system, turbidity at 600 nm; type: cell-based; conditions: for absorbance of the aqueous phase after incubation: medium pre-incubation 0.12, FIG. 20; for amount needed relative to ferulic acid to achieve the same effect: 10 wt.-% versus 0.25 wt.-% ferulic acid in Plantanol
From the text: (§1) The growth of microbes in the fuel is one of the main problems of biofuels, as set out above. The aim of the experiments was to investigate the bacterial growth in the biphasic biofuel/water system to see how the addition of an antimicrobial additive to the biofuel has an impact on the microbial growth in the aqueous bacteria solution. For this purpose, the so-called “broth dilution” method was modified and applied to the biphasic (biofuel+additive)/(water+bacteria) system.
(§2) This method represents a standard test for the investigation of bactericidal substances (e.g. antibiotics). At first, bacteria are incorporated in water that contains a nutrient medium (e.g. blood or yeast extracts). The potential antimicrobial agents are then added to the bacteria solution and the mixture is incubated over night at a certain temperature.
(§3) The concentration of bacteria can be measured by means of photometric spectroscopy as the presence of bacteria in a solution lead to turbidity. The higher the turbidity, the more bacteria are present in the solution. […] In some cases, the turbidity even decreases (=bacteria die).
(§4) The above-mentioned method was modified and applied to the biofuel/water system. For this purpose, there was one type of gram-negative (Escherichia coli) and gram-positive bacteria (Staphylococcus aureus) incorporated in each aqueous medium. The so-called “LB-medium” (lysogeny broth) was used as the nutrient medium. The biofuel (with and without additive) was then added to the bacteria solution leading to a phase separation of the biofuel (top) and aqueous medium (bottom).
(§5) The samples were incubated in a so-called incubator shaker, to ensure a good mixing of the two phases. Thereafter, the samples were taken out of the incubator and it was waited until complete phase separation occurred (˜30 minutes). Lastly, the aqueous phase was transferred and measured photometrically at a wavelength of A=600 nm.
(§6) Thus, the turbidity of the aqueous phase solely arises from the bacteria's presence in the water. Depending on the magnitude of the turbidity, it can be concluded whether and how the addition of a certain compound to the biofuel affects the bacterial growth in the aqueous medium.
(§7) For this purpose, different concentrations of antimicrobial substances were added to the biofuel and the effect of these substances on the turbidity of the samples was investigated. On the one hand, hydrophobic, biofuel-soluble bactericides were used (Eugenol, Carvacrol) and on the other hand hydrophilic, biofuel-insoluble substances (caffeic acid, gallic acid, ferulic acid) were used. The glycerol derivative solketal was used to make the hydrophilic substances soluble in the biofuel.
(§8) The chosen concentrations for Grotamar82 and Liqui Moly were the ones recommended by the manufacturer. For both products, there is a recommended concentration for prevention of diesel bug as well as a recommended “shock dosage” in case of an already existing microbial contamination. 1000 ppm of Grotamar82 as well 5000 ppm of the product by Liqui Moly are recommended as a “shock dosage” while 250 ppm and 1000 ppm are recommended to achieve an effective protection against diesel bug.
(§9) Additionally, formaldehyde was added to the Plantanol as the kinetics of the hydrolysis of MBO (cf. the above scheme) in Grotamar82 were not known. Grotamar82 contains about 20% of MBO, according to the manufacturer. Thus, a complete hydrolysis of the MBO in 250 ppm and 1000 ppm Grotamar82 would result in the production of 50 ppm and 200 ppm of formaldehyde respectively.

Escherichia coli = experiment: as above; type: cell-based; conditions: for effect on bacterial growth compared with Staphylococcus aureus: in Plantanol with solketal; for effect on bacterial growth compared with Staphylococcus aureus / bacterial growth (turbidity of the aqueous phase): FIG. 19; for microbial growth (turbidity of the aqueous phase): FIG. 21
From the text: as §1, §2, §3, §4, §5, §6, §7, §8, §9

[2] = Solubilisation of hydrophilic antioxidants in biofuel by glycerol derivatives; type: physicochemical
Experimental: As a proof of concept, analogous experiments were carried out with the biofuel “Plantanol” from industry. […] The samples were prepared by dissolving the respective antioxidants in solketal.

[3] = 330 ppm in 63/27/10 biodiesel (FAME)/rapeseed oil/solketal, FIG. 14
[4] = 0.1-0.25 wt.-% in Plantanol, solubilised with solketal, FIG. 18
[5] = 333 ppm in 63/27/10 FAME/rapeseed oil/solketal, FIG. 16

## CC1(C)OCC(CO)O1 (stereo not shown) [solketal, isopropylideneglycerol]
[1]
  oxidative stability of the single, pure component: oxidised nearly as fast as 2-methylfuran

## CCCC(=O)OCC(COC(=O)CCC)OC(=O)CCC [Tributyrin, glycerol tributyrate]
[1]
  oxidative stability of the single, pure component: insensitive toward oxidation

## O=C1O[C@H]([C@@H](O)CO)C(O)=C1O [vitamin C, ascorbic acid]
[1]; 167 ppm added to the system containing 333 ppm DHB, FIG. 16
  effect of addition on oxidative stability: no effect on the overall stability
[1]; 167 ppm added to the system containing 333 ppm GA, FIG. 16
  effect of addition on oxidative stability: distinct increase of the oxidative stability
[1]; 167 ppm added to the system containing 333 ppm HT, FIG. 16
  effect of addition on oxidative stability: distinct increase of the oxidative stability

## CCCOC(=O)c1cc(O)c(O)c(O)c1 [propyl gallate]
[1]; tributyrin system (60 wt.-% FAME, 30 wt.-% rapeseed oil, 10 wt.-% tributyrin), FIG. 12
  oxidative stability of the biofuel: the higher the concentration of the antioxidant, the better the stability toward oxidation is

## CC(C)(C)c1cc(O)ccc1O [TBHQ, 2-tert-butyl hydroquinone, reference compound]
[1]
  oxidative stability standard according to EN 14214: not reached

## Oc1ccc(O)cc1 [hydroquinone, reference compound]
[1]; 0.2 wt.-% in solketal system (60 wt.-% FAME, 30 wt.-% rapeseed oil, 10 wt.-% solketal), FIG. 9
  oxidative stability of the biofuel: distinctly increased
[1]; 160 ppm in solketal system (60/30/10), FIG. 9
  oxidative stability of the biofuel: not enough to fulfill the standard
[1]; [3]
  oxidative stability of the biofuel (EN 14214): enough to make the biofuel fulfil the standard
[1]
  oxidative stability standard according to EN 14214: not reached

## O=C(O)c1cc(O)c(O)c(O)c1 [gallic acid]
Staphylococcus aureus; [4]
  bacterial growth (turbidity of the aqueous phase): distinctly reduced
Escherichia coli
  effect on bacterial growth compared with Staphylococcus aureus: smaller effect on the E.-coli bacteria than they had on the Staphylococcus aureus
[1]; [3]
  oxidative stability of the biofuel (EN 14214): enough to make the biofuel fulfil the standard
[1]; [5]
  oxidative stability of the biofuel (EN 14214): stabilization above the minimum of EN 14214
[1]; solketal system, higher concentrations, FIG. 11
  induction time versus concentration, ranking: most effective
[2]; 500 ppm of additive in Plantanol
  amount of solketal sufficient to solubilize the additive: < 0.5 wt %

## OCCc1ccc(O)c(O)c1 [hydroxytyrosol]
[1]; [3]
  oxidative stability of the biofuel (EN 14214): enough to make the biofuel fulfil the standard
[1]; [5]
  oxidative stability of the biofuel (EN 14214): stabilization above the minimum of EN 14214

## COc1cc(/C=C/C(=O)O)ccc1O [ferulic acid]
Staphylococcus aureus; 0.1 wt % dissolved in solketal, in Plantanol, FIG. 20
  bacterial growth (turbidity of the aqueous phase): drastically decreases
Staphylococcus aureus; 0.25 wt % in solketal/Plantanol
  absorbance of the aqueous phase after incubation: below 0.12
Staphylococcus aureus; 0.25 wt.-% in Plantanol, FIG. 18
  bacterial growth (turbidity of the aqueous phase): complete inhibition
Staphylococcus aureus; 0.5 wt % in solketal/Plantanol
  absorbance of the aqueous phase after incubation: below 0.12
Escherichia coli; 0.1 wt % in solketal, in Plantanol
  microbial growth (turbidity of the aqueous phase): significantly decreased microbial growth
Escherichia coli; 0.25 wt % in Plantanol
  microbial growth (turbidity of the aqueous phase): No growth of bacteria was observable
Escherichia coli; 0.25 wt.-% in Plantanol
  bacterial growth (turbidity of the aqueous phase): distinctly reduced it
Escherichia coli; 0.50 wt % in Plantanol
  microbial growth (turbidity of the aqueous phase): No growth of bacteria was observable

## O=C(O)/C=C/c1ccc(O)c(O)c1 [caffeic acid]
Staphylococcus aureus; [4]
  bacterial growth (turbidity of the aqueous phase): distinctly reduced
Escherichia coli
  effect on bacterial growth compared with Staphylococcus aureus: smaller effect on the E.-coli bacteria than they had on the Staphylococcus aureus
[1]; [3]
  oxidative stability of the biofuel (EN 14214): enough to make the biofuel fulfil the standard
[2]; 0.1 wt % of additive in Plantanol
  amount of solketal found preferable to solubilize the additive: up to 10 wt %

## O=c1c(O)c(-c2ccc(O)c(O)c2)oc2cc(O)cc(O)c12 [quercetin]
[1]; [3]
  oxidative stability of the biofuel (EN 14214): enough to make the biofuel fulfil the standard

## Cc1ccc(C(C)C)cc1O [Carvacrol, reference compound]
Staphylococcus aureus; 2 wt.-% in Plantanol, FIG. 18
  bacterial growth (turbidity of the aqueous phase): no effect on the bacterial growth
Staphylococcus aureus; 10 wt.-% in Plantanol, FIG. 18
  bacterial growth (turbidity of the aqueous phase): completely inhibited the growth
Staphylococcus aureus
  amount needed relative to ferulic acid to achieve the same effect: 40 times
Escherichia coli; 10 wt.-% in Plantanol
  bacterial growth (turbidity of the aqueous phase): distinctly reduced it

## C=CCc1ccc(O)c(OC)c1 [Eugenol, reference compound]
Staphylococcus aureus; 2 wt.-% in Plantanol, FIG. 18
  bacterial growth (turbidity of the aqueous phase): no effect on the bacterial growth
Staphylococcus aureus; 10 wt.-% in Plantanol, FIG. 18
  bacterial growth (turbidity of the aqueous phase): completely inhibited the growth
Staphylococcus aureus
  amount needed relative to ferulic acid to achieve the same effect: 40 times
Escherichia coli; 10 wt.-% in Plantanol
  bacterial growth (turbidity of the aqueous phase): distinctly reduced it
